In patent publication US20240228547A1, “POLYPEPTIDE FOR RESISTING NOVEL CORONAVIRUS AND APPLICATION THEREOF” (INSTITUTE OF MICROBIOLOGY, CHINESE ACADEMY OF SCIENCES, priority 2021, published 2024):

System: pseudovirus of SARS-CoV-2 original strain (SARS-CoV-2 WT)
Details: for IC50: read-out: IC50, inhibitory effect on pseudovirus, Hela hACE2 cells

SMILES | Increase multiple (fold increase in the inhibitory effect compared to the polypeptide P3) | IC50 [nM]
CC[C@H](C)[C@H](N)C(=O)N[C@@H](CO)C(=O)NCC(=O)N[C@H](C(=O)N[C@@H](CC(N)=O)C(=O)N[C@@H](C)C(=O)N[C@@H](CO)C(=O)N[C@H](C(=O)N[C@H](C(=O)N[C@@H](CC(N)=O)C(=O)N[C@H](C(=O)N[C@@H](CCC(N)=O)C(=O)N[C@@H](CCCCN)C(=O)N[C@@H](CCC(=O)O)C(=O)N[C@H](C(=O)N[C@@H](CC(=O)O)C(=O)N[C@@H](CCCNC(=N)N)C(=O)N[C@@H](CC(C)C)C(=O)N[C@@H](CC(N)=O)C(=O)N[C@@H](CCC(=O)O)C(=O)N[C@H](C(=O)N[C@@H](C)C(=O)N[C@@H](CCCCN)C(=O)N[C@@H](CCC(=O)O)C(=O)N[C@@H](CC(C)C)C(=O)N[C@@H](CC(N)=O)C(=O)N[C@@H](CCC(=O)O)C(=O)N[C@@H](CO)C(=O)N[C@@H](CC(C)C)C(=O)N[C@H](C(=O)N[C@@H](CC(=O)O)C(=O)N[C@@H](CC(C)C)C(=O)N[C@@H](CCC(N)=O)C(=O)N[C@@H](CCC(=O)O)C(=O)N[C@@H](CC(C)C)C(=O)O)[C@@H](C)CC)C(C)C)[C@@H](C)CC)[C@@H](C)CC)C(C)C)C(C)C)[C@@H](C)CC [Polypeptide P3-5] | 0.5 | 1590
CC[C@H](C)[C@H](N)C(=O)N[C@@H](CO)C(=O)NCC(=O)N[C@H](C(=O)N[C@@H](CC(N)=O)C(=O)N[C@@H](C)C(=O)N[C@@H](CO)C(=O)N[C@H](C(=O)N[C@H](C(=O)N[C@@H](CC(N)=O)C(=O)N[C@H](C(=O)N[C@@H](CCCCN)C(=O)N[C@@H](CCC(=O)O)C(=O)N[C@@H](CCC(=O)O)C(=O)N[C@H](C(=O)N[C@@H](CC(=O)O)C(=O)N[C@@H](CCCNC(=N)N)C(=O)N[C@@H](CC(C)C)C(=O)N[C@@H](CC(N)=O)C(=O)N[C@@H](CCC(=O)O)C(=O)N[C@H](C(=O)N[C@@H](C)C(=O)N[C@@H](CCCCN)C(=O)N[C@@H](CC(N)=O)C(=O)N[C@@H](CC(C)C)C(=O)N[C@@H](CC(N)=O)C(=O)N[C@@H](CCC(=O)O)C(=O)N[C@@H](CO)C(=O)N[C@@H](CC(C)C)C(=O)N[C@H](C(=O)N[C@@H](CC(=O)O)C(=O)N[C@@H](CC(C)C)C(=O)N[C@@H](CCC(N)=O)C(=O)N[C@@H](CCC(=O)O)C(=O)N[C@@H](CC(C)C)C(=O)O)[C@@H](C)CC)C(C)C)[C@@H](C)CC)[C@@H](C)CC)C(C)C)C(C)C)[C@@H](C)CC [Polypeptide P3-4] | 3.3 | 240
CC[C@H](C)[C@H](NC(=O)CNC(=O)[C@H](CO)NC(=O)[C@@H](NC(=O)[C@H](CC(=O)O)NC(=O)CNC(=O)[C@H](Cc1ccccc1)NC(=O)[C@H](CCCCN)NC(=O)[C@@H](N)C(C)C)[C@@H](C)CC)C(=O)N[C@@H](CC(N)=O)C(=O)N[C@@H](C)C(=O)N[C@@H](CO)C(=O)N[C@H](C(=O)N[C@H](C(=O)N[C@@H](CC(N)=O)C(=O)N[C@H](C(=O)N[C@@H](CCCCN)C(=O)N[C@@H](CCC(=O)O)C(=O)N[C@@H](CCC(=O)O)C(=O)N[C@H](C(=O)N[C@@H](CC(=O)O)C(=O)N[C@@H](CCCNC(=N)N)C(=O)N[C@@H](CC(C)C)C(=O)N[C@@H](Cc1ccc(O)cc1)C(=O)N[C@@H](CCC(=O)O)C(=O)N[C@H](C(=O)N[C@H](C(=O)N[C@@H](CCCCN)C(=O)N[C@@H](CC(N)=O)C(=O)N[C@@H](CC(C)C)C(=O)N[C@@H](CC(N)=O)C(=O)N[C@@H](CCC(=O)O)C(=O)N[C@@H](CO)C(=O)N[C@@H](CC(C)C)C(=O)N[C@H](C(=O)N[C@@H](CC(=O)O)C(=O)N[C@@H](CC(C)C)C(=O)N[C@@H](CCC(N)=O)C(=O)N[C@@H](CCC(=O)O)C(=O)N[C@@H](CC(C)C)C(=O)O)[C@@H](C)CC)C(C)C)C(C)C)[C@@H](C)CC)[C@@H](C)CC)C(C)C)C(C)C [Polypeptide P3-3] | 3.4 | 230
